{
  "source": "patent EP3613735A1",
  "about": "“NOVEL SIRT 1 ACTIVATOR AND MEDICINAL USE THEREOF” (Pusan National University Industry - University Cooperation …, priority 2017, dated 2018)",
  "format_in_all_cases": "cell-based",
  "key": {"skin fibroblasts": {"system": "skin fibroblasts", "assay": "β-galactosidase staining of UVB-induced cell aging", "settings": "UVB of 10 mJ/cm^2; pretreated at 10 µM for 24 hours", "description": "β-galactosidase is used to induce cellular aging of fibroblasts, which are the main cells of the epidermal layer of skin, by using UVB, the most important environmental factor in skin aging, as the most common marker for cell aging and β-galactosidase staining was performed to analyze the cell aging protection of Compound 32u. […]"}, "PPARβ/δ [1]": {"molecular_target": "T1, PPARβ/δ (Homo sapiens, UniProt Q03181)", "T1 construct": "endogenous in cells", "T1 sequence (Q03181 1-441)": "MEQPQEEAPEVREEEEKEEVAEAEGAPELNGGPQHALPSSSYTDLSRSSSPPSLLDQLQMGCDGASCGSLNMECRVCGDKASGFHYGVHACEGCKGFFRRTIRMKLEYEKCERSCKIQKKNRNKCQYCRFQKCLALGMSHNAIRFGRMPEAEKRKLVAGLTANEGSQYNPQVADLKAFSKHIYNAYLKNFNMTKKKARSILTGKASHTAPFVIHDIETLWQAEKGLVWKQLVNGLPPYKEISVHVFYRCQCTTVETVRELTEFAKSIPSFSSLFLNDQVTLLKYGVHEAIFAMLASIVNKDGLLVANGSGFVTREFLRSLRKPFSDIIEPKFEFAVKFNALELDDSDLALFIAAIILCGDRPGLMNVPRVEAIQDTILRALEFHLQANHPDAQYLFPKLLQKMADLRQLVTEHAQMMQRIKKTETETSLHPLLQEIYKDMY", "assay": "PPAR response element (PPRE)-luciferase assay in fibroblasts", "settings": "fibroblasts overexpressing PPARβ/δ; compared with GW501516", "description": "Next, to analyze the effect of PPARβ/δ activity of Compound 69c, a PPAR response element (PPRE)-luciferase assay was performed on fibroblasts, which are the main cells of the skin epithelial layer. A binding site region of PPARβ/δ, i.e. plasmids in which the PPRE region was bound upstream of the luciferase gene were transfected by treating the cells with lipofectamine. Through this process, DNA is surrounded by lipofectamine, making it easier to pass the cell membrane. In addition, it is possible to identify which of the PPAR subtypes is effective by overexpressing PPARβ/δ in addition to the endogenous PPAR subtype. 18 to 24 hours after transduction, at least 5 hours after treatment with the candidate compound, fluorescence was measured by addition of the substrate of the luciferase assay system. Luciferase expression amount can be analyzed by the fluorescence value, and the activity level of PPARβ/δ can be analyzed through the above results."}, "PPARβ/δ [2]": {"molecular_target": "T1, PPARβ/δ", "assay": "PPARβ/δ transfer into the nucleus, western blot", "settings": "1 hour and 30 minutes after treating cells"}, "SIRT 1": {"system": "SIRT 1", "assay": "SIRT 1 expression, real-time PCR and western blot", "description": "To confirm whether Compound 69c increases the expression of SIRT 1 through the activation of PPARβ/δ, real-time PCR and western blot were performed."}, "p53": {"system": "p53", "assay": "Acetylation of p53 increased by UVB", "text": "Furthermore, SIRT 1 is known to exert its function through deacetylation of various substrate proteins."}, "[3]": {"system": "reactive oxygen species (ROS)", "assay": "Reactive oxygen species with DCF-DA fluorescent dye"}, "pro-collagen": {"system": "pro-collagen", "assay": "Pro-collagen expression in UVB photoaging of skin fibroblasts, Western blotting", "settings": "skin fibroblasts pretreated with 10 µM one hour before 8 mJ/cm^2 UVB; after 6 hours", "description": "First, the effect of Compound 69c on pro-collagen expression by cell photoaging was analyzed. A collagen reduction model by UVB was constructed using skin fibroblasts to perform the experiments. Skin fibroblasts were pretreated with 10 µM Compound 69c one hour ago and irradiated with 8 mJ/cm^2 of UVB. After 6 hours, the cells were lysed and the expression of pro-collagen was confirmed via Western blotting."}, "MMP1": {"system": "MMP1", "assay": "MMP1 expression in UVB photoaging of skin fibroblasts, Western blotting", "settings": "skin fibroblasts pretreated with 10 µM 1 hour before 8 mJ/cm^2 UVB; after 6 hours", "description": "(§1) Based on this, in order to confirm the effect of Compound 69c on the expression level of intracellular MMPs, 10 µM of Compound 69c was pretreated 1 hour prior to skin fibroblasts and irradiated with UVB of 8 mJ/cm^2. After 6 hours, cells were lysed and the expression levels of MMP1 and MMP13 were confirmed by Western blotting."}, "MMP13": {"system": "MMP13", "assay": "MMP13 expression in UVB photoaging of skin fibroblasts, Western blotting", "settings": "skin fibroblasts pretreated with 10 µM 1 hour before 8 mJ/cm^2 UVB; after 6 hours", "description": "as §1"}},
  "data": [
    {"smiles": "CN1CCN(Cc2ccc3oc(-c4ccccc4NC(=O)c4ccc5ccccc5c4)nc3c2)CC1", "note": "[Compound 69c, N-(2-(5-((4-Methylpiperazin-1-yl)methyl)benzo[d]oxazol-2-yl)phenyl)-2-naphthamide]", "values": [
      {"measurement": "β-galactosidase staining", "setting": "skin fibroblasts", "result": "reduced"},
      {"measurement": "PPARβ/δ activity (PPRE-luciferase)", "setting": "PPARβ/δ [1]", "result": "higher PPARβ/δ activity than GW501516"},
      {"measurement": "PPARβ/δ transfer in the nucleus", "setting": "PPARβ/δ [2]", "result": "increase in PPARβ/δ transfer in the nucleus"},
      {"measurement": "mRNA expression level of SIRT 1", "setting": "SIRT 1; real-time PCR", "result": "increased"},
      {"measurement": "protein expression level of SIRT 1", "setting": "SIRT 1; western blot", "result": "increased"},
      {"measurement": "acetylation of p53", "setting": "p53", "result": "inhibited acetylation of p53 increased by UVB"},
      {"measurement": "reactive oxygen species induced by UVB", "setting": "[3]", "result": "inhibited"},
      {"measurement": "expression of pro-collagen", "setting": "pro-collagen", "result": "increased"},
      {"measurement": "expression of MMP1", "setting": "MMP1", "result": "reduced"},
      {"measurement": "expression of MMP13", "setting": "MMP13", "result": "reduced"}
    ]}
  ]
}
